For orientation: pIC50 means −log10 of the IC50, conventionally taken in molar units.

Data on 13 molecules can be found in patent US20230348442A1, “GALECTIN-3 INHIBITING 2-HYDROXYCYCLOALKANE-1-CARBAMOYL DERIVATIVES” (Idorsia Pharmaceuticals Ltd, priority 2020, published 2023).

pIC50: −log10 of the molar value.

Chain of human Gal-3 (hGal-3) (P17931 whole entry): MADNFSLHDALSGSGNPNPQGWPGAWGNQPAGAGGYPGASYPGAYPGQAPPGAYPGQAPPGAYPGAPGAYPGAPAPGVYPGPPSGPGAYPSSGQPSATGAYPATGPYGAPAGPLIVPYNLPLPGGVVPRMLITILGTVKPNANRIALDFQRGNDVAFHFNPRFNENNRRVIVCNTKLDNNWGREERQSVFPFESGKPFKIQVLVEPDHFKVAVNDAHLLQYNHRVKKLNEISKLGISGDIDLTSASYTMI

This assay concerns the target human Gal-3 (hGal-3) (Homo sapiens (Human), UniProt P17931). Put plainly: competitive binding assay: binding of biotinylated hGal-3 to microplate-adsorbed asialofetuin (ASF), spectrophotometric. The conditions noted are these: Activity on hGal-3; mean values of several measurements. The method, boiled down:
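Compounds in DMSO dilution series competed with 300-1000 ng/mL biotinylated hGal-3 for asialofetuin adsorbed on the plate (3 h, 4° C). Streptavidin-peroxidase at 80 ng/mL (1 h, 4° C) with ABTS gave a spectrophotometric read-out, and IC50 was reported as the mean of repeat runs.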
Regarding `CO[C@@H]1[C@@H](n2cc(-c3ccc(Cl)c(F)c3F)nn2)[C@@H](O)[C@@H](CO)O[C@H]1C(=O)N(c1cc(Cl)cc(C#N)c1)[C@H]1CCC[C@@H]1O` [Example 1.14.4, (2R,3R,4S,5R,6R)-4-(4-(4-chloro-2,3-difluorophenyl)-1H-1,2,3-triazol-1-yl)-N-(3-chloro-5-cyanophenyl)-5-hydroxy-N-((1S,2S)-2-hydroxycyclopentyl)-6-(hydroxymethyl)-3-methoxytetrahydro-2H-pyran-2-carboxamide], the pIC50 was 7.90. Molecule `CO[C@@H]1[C@@H](n2cc(-c3cc(F)c(F)c(F)c3)nn2)[C@@H](O)[C@@H](CO)O[C@H]1C(=O)N(c1cc(Br)cc(C#N)c1)[C@@H]1CCC[C@H]1O` [Example 1.1.5R, (2R,3R,4S,5R,6R)-N-(3-bromo-5-cyanophenyl)-5-hydroxy-N-((1R,2R)-2-hydroxycyclopentyl)-6-(hydroxymethyl)-3-methoxy-4-(4-(3,4,5-trifluorophenyl)-1H-1,2,3-triazol-1-yl)tetrahydro-2H-pyran-2-carboxamide] gave a pIC50 of 7.01. This pIC50 is 0.89 log units lower than that of the molecule before.

Consider `CO[C@@H]1[C@@H](n2cc(-c3ccc(Cl)c(F)c3F)nn2)[C@@H](O)[C@@H](CO)O[C@H]1C(=O)N(c1cc(Br)cc(C#N)c1)[C@H]1CCC[C@@H]1O` [Example 1.14.5, (2R,3R,4S,5R,6R)-N-(3-bromo-5-cyanophenyl)-4-(4-(4-chloro-2,3-difluorophenyl)-1H-1,2,3-triazol-1-yl)-5-hydroxy-N-((1S,2S)-2-hydroxycyclopentyl)-6-(hydroxymethyl)-3-methoxytetrahydro-2H-pyran-2-carboxamide], for which the pIC50 was 7.76. `CO[C@@H]1[C@@H](n2cc(-c3cc(F)c(Br)c(F)c3)nn2)[C@@H](O)[C@@H](CO)O[C@H]1C(=O)N(c1cc(Cl)cc(C#N)c1)[C@H]1CCC[C@@H]1O` [Example 1.6.4, (2R,3R,4S,5R,6R)-4-(4-(4-bromo-3,5-difluorophenyl)-1H-1,2,3-triazol-1-yl)-N-(3-chloro-5-cyanophenyl)-5-hydroxy-N-((1S,2S)-2-hydroxycyclopentyl)-6-(hydroxymethyl)-3-methoxytetrahydro-2H-pyran-2-carboxamide] gave a negative-log IC50 (pIC50) of 7.54. This pIC50 lies 0.22 log units lower than the previous one. `CO[C@@H]1[C@@H](n2cc(-c3cc(F)c(F)c(F)c3)nn2)[C@@H](O)[C@@H](CO)O[C@H]1C(=O)N(c1cc(Cl)cc(Cl)c1)[C@H]1CCC[C@@H]1O` [Example 1.1.2, (2R,3R,4S,5R,6R)-N-(3,5-dichlorophenyl)-5-hydroxy-N-((1S,2S)-2-hydroxycyclopentyl)-6-(hydroxymethyl)-3-methoxy-4-(4-(3,4,5-trifluorophenyl)-1H-1,2,3-triazol-1-yl)tetrahydro-2H-pyran-2-carboxamide] showed a pIC50 of 7.43. This pIC50 and that of the molecule before are within 0.2 log units of each other.

`CO[C@@H]1[C@@H](n2cc(-c3ccc(C)c(F)c3)nn2)[C@@H](O)[C@@H](CO)O[C@H]1C(=O)N(c1cc(Br)cc(C#N)c1)[C@H]1CCC[C@@H]1O` [Example 1.13.5, (2R,3R,4S,5R,6R)—N-(3-bromo-5-cyanophenyl)-4-(4-(3-fluoro-4-methylphenyl)-1H-1,2,3-triazol-1-yl)-5-hydroxy-N-((1S,2S)-2-hydroxycyclopentyl)-6-(hydroxymethyl)-3-methoxytetrahydro-2H-pyran-2-carboxamide]: the pIC50 is 7.77.

Take `CO[C@@H]1[C@@H](n2cc(-c3cc(F)cc(Br)c3)nn2)[C@@H](O)[C@@H](CO)O[C@H]1C(=O)N(c1cc(C)cc(C#N)c1)[C@H]1CC[C@@H]1O` [Example 2.10.8, (2R,3R,4S,5R,6R)-4-(4-(3-bromo-5-fluorophenyl)-1H-1,2,3-triazol-1-yl)-N-(3-cyano-5-methylphenyl)-5-hydroxy-N-((1S,2S)-2-hydroxycyclobutyl)-6-(hydroxymethyl)-3-methoxytetrahydro-2H-pyran-2-carboxamide]: the negative-log IC50 (pIC50) is 6.63. For `CO[C@@H]1[C@@H](n2cc(-c3cc(F)c(F)c(F)c3)nn2)[C@@H](O)[C@@H](CO)O[C@H]1C(=O)N(c1cccc(I)c1)[C@H]1CC[C@@H]1O` [Example 2.1.6, (2R,3R,4S,5R,6R)-5-hydroxy-N-((1S,2S)-2-hydroxycyclobutyl)-6-(hydroxymethyl)-N-(3-iodophenyl)-3-methoxy-4-(4-(3,4,5-trifluorophenyl)-1H-1,2,3-triazol-1-yl)tetrahydro-2H-pyran-2-carboxamide], the pIC50 is 6.71.

In the case of `CO[C@@H]1[C@@H](n2cc(-c3ccc(Br)c(F)c3F)nn2)[C@@H](O)[C@@H](CO)O[C@H]1C(=O)N(c1cc(F)cc(C#N)c1)[C@H]1CCC[C@@H]1O` [Example 1.12.7, (2R,3R,4S,5R,6R)-4-(4-(4-bromo-2,3-difluorophenyl)-1H-1,2,3-triazol-1-yl)-N-(3-cyano-5-fluorophenyl)-5-hydroxy-N-((1S,2S)-2-hydroxycyclopentyl)-6-(hydroxymethyl)-3-methoxytetrahydro-2H-pyran-2-carboxamide], the negative logarithm of the IC50 (pIC50) was 7.67. Against the preceding molecule, the pIC50 is 0.96 log units higher. The molecule `COc1cc(-c2cn([C@H]3[C@@H](O)[C@@H](CO)O[C@@H](C(=O)N(c4cc(Br)cc(Br)c4)[C@H]4CCC[C@@H]4O)[C@@H]3OC)nn2)cc(F)c1F` [Example 1.3.11, (2R,3R,4S,5R,6R)-N-(3,5-dibromophenyl)-4-(4-(3,4-difluoro-5-methoxyphenyl)-1H-1,2,3-triazol-1-yl)-5-hydroxy-N-((1S,2S)-2-hydroxycyclopentyl)-6-(hydroxymethyl)-3-methoxytetrahydro-2H-pyran-2-carboxamide] showed a pIC50 of 7.54. Under `CO[C@@H]1[C@@H](n2cc(-c3cc(F)c(F)c(F)c3)nn2)[C@@H](O)[C@@H](CO)O[C@H]1C(=O)N(c1cc(Br)cc(Br)c1)[C@H]1CCC[C@@H]1O` [Example 1.1.11, (2R,3R,4S,5R,6R)-N-(3,5-dibromophenyl)-5-hydroxy-N-((1S,2S)-2-hydroxycyclopentyl)-6-(hydroxymethyl)-3-methoxy-4-(4-(3,4,5-trifluorophenyl)-1H-1,2,3-triazol-1-yl)tetrahydro-2H-pyran-2-carboxamide] stands 7.51; under `CO[C@@H]1[C@@H](n2cc(-c3cc(F)c(Cl)c(F)c3)nn2)[C@@H](O)[C@@H](CO)O[C@H]1C(=O)N(c1cc(Br)cc(C#N)c1)[C@H]1CC[C@@H]1O` [Example 2.5.5, (2R,3R,4S,5R,6R)-N-(3-bromo-5-cyanophenyl)-4-(4-(4-chloro-3,5-difluorophenyl)-1H-1,2,3-triazol-1-yl)-5-hydroxy-N-((1S,2S)-2-hydroxycyclobutyl)-6-(hydroxymethyl)-3-methoxytetrahydro-2H-pyran-2-carboxamide], 7.33. With `CO[C@@H]1[C@@H](n2cc(-c3ccc(C#N)c(F)c3)nn2)[C@@H](O)[C@@H](CO)O[C@H]1C(=O)N(c1cc(C)cc(C#N)c1)[C@H]1CCC[C@@H]1O` [Example 1.16.8, (2R,3R,4S,5R,6R)-4-(4-(4-cyano-3-fluorophenyl)-1H-1,2,3-triazol-1-yl)-N-(3-cyano-5-methylphenyl)-5-hydroxy-N-((1S,2S)-2-hydroxycyclopentyl)-6-(hydroxymethyl)-3-methoxytetrahydro-2H-pyran-2-carboxamide] the figure was 6.79.
